This is an account of results in publication PMC8294803, “A Roadmap to the Structure-Related Metabolism Pathways of Per- and Polyfluoroalkyl Substances in the Early Life Stages of Zebrafish (Danio rerio)” (Environmental Health Perspectives, 2021).

Where “and” joins values, the source holds several entries; their conditions need not be identical. Equal values may be shown once.

The first data set has as its system zebrafish embryos.
Experiment: not given
The conditions noted are these: 5μM through 120 hpf, malformation rate.
Regarding “3-(Perfluoro-2-butyl)propane-1,2-diol [compound 30]”, the “pericardial oedemata, Mean” value came out at 2.22%; the “spinal curvature, Mean” value came out at 2.22%; the “tail dysplasia, Mean” value is 0.00%.

Take `O=C(O)C(F)(F)C(F)(F)C(F)(F)F` [compound 12, Perfluorobutanoic acid]: the “pericardial oedemata, Mean” value was 1.11%; the “spinal curvature, Mean” value is 0.00%; the “tail dysplasia, Mean” value is listed as 0.00%.

Turning to `COC(=O)CCC(F)(F)C(F)(F)C(F)(F)C(F)(F)F` [compound 39, Methyl 2H,2H,3H,3H-perfluoroheptanoate], the “pericardial oedemata, Mean” value turned out to be 0.00%; the “spinal curvature, Mean” value turned out to be 0.00%; the “tail dysplasia, Mean” value came to 0.00%.

On to `OCCCCC(F)(F)C(F)(F)C(F)(F)C(F)(F)F` [compound 40, 4:4 Fluorotelomer alcohol], for which the “pericardial oedemata, Mean” value is 0.00%; the “spinal curvature, Mean” value was determined as 0.00%; the “tail dysplasia, Mean” value is listed as 0.00%.

On to `OCCCC(F)(F)C(F)(F)C(F)(F)F` [compound 49, 3-(Perfluoropropyl)propanol], for which the “pericardial oedemata, Mean” value was 0.00%; the “spinal curvature, Mean” value is 0.00%; the “tail dysplasia, Mean” value amounted to 0.00%.

Turning to `O=C(O)C=CC(F)(C(F)(F)F)C(F)(F)F` [compound 56, 3-(Perfluoroisopropyl)-2-propenoic acid], the “pericardial oedemata, Mean” value is given as 0.00%; the “spinal curvature, Mean” value was determined as 0.00%; the “tail dysplasia, Mean” value came to 0.00%.

The same data set, now with this note: 5 µM, exposure through 120 hpf.
With “3-(Perfluoro-2-butyl)propane-1,2-diol [compound 30]”, the “Mortality (%)” value is 0%.

Consider `O=C(O)C(F)(F)C(F)(F)C(F)(F)F` [compound 12, Perfluorobutanoic acid], for which the “Mortality (%)” value came to 4.4%.

With `COC(=O)CCC(F)(F)C(F)(F)C(F)(F)C(F)(F)F` [compound 39, Methyl 2H,2H,3H,3H-perfluoroheptanoate], the “Mortality (%)” value amounted to 1.1%.

Turning to `OCCCCC(F)(F)C(F)(F)C(F)(F)C(F)(F)F` [compound 40, 4:4 Fluorotelomer alcohol], the “Mortality (%)” value is on record as 0%.

For `OCCCC(F)(F)C(F)(F)C(F)(F)F` [compound 49, 3-(Perfluoropropyl)propanol], the “Mortality (%)” value amounted to 1.1%.

On to `O=C(O)C=CC(F)(C(F)(F)F)C(F)(F)F` [compound 56, 3-(Perfluoroisopropyl)-2-propenoic acid], for which the “Mortality (%)” value is given as 4.4%.

A further data set concerns zebrafish larvae. Nature of the data set: Bioconcentration factors (BCF) of PFAS in zebrafish larvae. The conditions noted are these: zebrafish larvae, 0.5 µM exposure, 120 hpf, three replicates. An outline of the steps: (§1)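 Zebrafish embryos collected within 1 h post-spawning were exposed individually to each PFAS in facility water with DMSO controls, medium renewed every 24 h from 24 to 96 hpf. Live hatched larvae collected at 120 hpf, wet-weighed, extracted with dichloromethane/methanol and analysed by UHPLC–high-resolution MS against mass-labelled standards.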
Take `O=C(O)C(F)(F)C(F)(F)C(F)(F)F` [compound 12, Perfluorobutanoic acid]: the “BCF 0.5µM” value was 2.559 L/kg.

Regarding `O=C(O)C=CC(F)(C(F)(F)F)C(F)(F)F` [compound 56, 3-(Perfluoroisopropyl)-2-propenoic acid], the “BCF 0.5µM” value was 2.65 L/kg.

The same data set, now with this note: zebrafish larvae, 5 µM exposure, 120 hpf, three replicates.
For `O=C(O)C(F)(F)C(F)(F)C(F)(F)F` [compound 12, Perfluorobutanoic acid], the “BCF 5µM” value was determined as 1.0 ± 0.28 L/kg.

`O=C(O)C=CC(F)(C(F)(F)F)C(F)(F)F` [compound 56, 3-(Perfluoroisopropyl)-2-propenoic acid]: the “BCF 5µM” value was determined as 1.6 ± 0.21 L/kg.

System in a further data set: not listed separately
Described as above. The note with it: zebrafish (Danio rerio), whole larvae, other: immersion in exposure medium, 5 µM. The method in brief:
as §1
Turning to `O=C(O)C(F)(F)C(F)(F)C(F)(F)F` [compound 12, Perfluorobutanoic acid], the concentration at 120 hpf is 3.1 ± 0.88 µM.

For another data set, the system named is zebrafish larvae. Nature of the data set: Identification of taurine conjugates by the DIPIC-Frag method in zebrafish larvae. The conditions noted are these: among 74 PFAS. In kind it is in vivo, Danio rerio. An excerpt: To identify the taurine conjugates in zebrafish larvae exposed to PFAS, we used the data-independent precursor isolation and characteristic fragment (DIPIC-Frag) method developed in previous studies ([Peng et al. 2015], [2016]) to enhance the coverage inspired by the detection of the characteristic fragment from taurine conjugates ( [taurine-H]^− , m/z 124.0063). Then, the taurine fragment peak was extracted from each AIF window across all 243 raw MS data. Once the taurine fragment peak was detected, corresponding precursor ions were identified from the same window and sample by aligning their chromatographic peaks. The precursor ions were further confirmed by their co-occurrences with the taurine fragment across samples. Once precursor ions were identified, the compound formulas and structures were predicted by interpreting high-resolution MS and MS/MS spectra, as mentioned above.
For “3-(Perfluoro-2-butyl)propane-1,2-diol [compound 30]”, the Taurine conjugates detected entry is reported as “taurine conjugates were detected”.

Regarding `COC(=O)CCC(F)(F)C(F)(F)C(F)(F)C(F)(F)F` [compound 39, Methyl 2H,2H,3H,3H-perfluoroheptanoate], the Taurine conjugates detected result is recorded as “taurine conjugates were detected”.

Take `OCCCCC(F)(F)C(F)(F)C(F)(F)C(F)(F)F` [compound 40, 4:4 Fluorotelomer alcohol]: the Taurine conjugates detected entry is given as “taurine conjugates were detected”.

Take `OCCCC(F)(F)C(F)(F)C(F)(F)F` [compound 49, 3-(Perfluoropropyl)propanol]: the Taurine conjugates detected entry was “taurine conjugates were detected”.

Consider `O=C(O)C=CC(F)(C(F)(F)F)C(F)(F)F` [compound 56, 3-(Perfluoroisopropyl)-2-propenoic acid], for which the Taurine conjugates detected entry is “taurine conjugates were detected”.

A further data set concerns zebrafish larvae. Nature of the data set: Nontargeted analysis of PFAS metabolites in zebrafish larvae (high-resolution MS). The conditions noted are these: 5μM through 120 hpf, single replicates; listed as PFBA. As for the experimental part: Zebrafish embryos were collected immediately after spawning, within 1 h, and subsequently transferred to 24-well plates with 1mL of facility water ( 0.036g sea salt, 0.15g sodium bicarbonate in 2L of reverse osmosis water). […] Three well replicates on the same plate were conducted for each concentration of individual chemical. […] Seven batches of experiments were performed to test all 74 PFAS. DMSO controls were incorporated in each batch of exposure experiments. Three replicates were performed for each treatment group, and 20 embryos were used for each replicate. […] For daily replenishment, 2.5mL of old exposure medium were replaced with freshly prepared medium every 24 h from 24 to 96 h post fertilization (hpf). Hatched or dead embryo numbers were recorded every 24 hpf, after which dead embryos were discarded from the growth media. Dead embryos or unhatched embryos were not used for PFAS measurement because the metabolism of PFAS might have been impacted. Zebrafish larvae collection occurred at 120 hpf. First, the larvae were anesthetized by cooling the plate in ice water (0–4°C) for ∼20 min . Then 8–15 larvae in each well were transferred into 1.5-mL tubes. Exposure media was carefully removed, and then the larvae were weighed (wet weight) after blotting excess water with a paper towel. […] Samples were stored at −80 °C until further chemical analysis was performed. Survival rate and hatching rate were calculated by summarizing all the documented data from the whole treatment duration. […] The exposure experiment of PFOSA was repeated using the same procedure as described above.
Each sample was spiked with 2μL of 0.2μg/mL mass-labeled PFAS mixture. Following this, 500μL of dichloromethane/methanol (2:1, vol/vol) was added to each sample for PFAS extraction. Larvae were then homogenized via ultrasonic probe, followed by 30 min of shaking and 30 min of sonication. Each sample was centrifuged at 14,000×g for 5 min, after which the supernatant was transferred to new tubes. Extraction was repeated once and the two supernatants were combined, evaporated under nitrogen flow, and reconstituted in 200μL of methanol for MS analysis.
Three microliters of each zebrafish extract was applied to a C18 column ( 1.5μm; 2.1mm×50mm; Thermo Scientific) and analyzed using a Vanquish ultra-HPLC system (Thermo Fisher Scientific) coupled to a Q Exactive high-resolution mass spectrometer (Thermo Fisher Scientific). The sampler and column compartments were maintained at 4°C and 40°C, respectively. The aqueous mobile phase solution (A) consisted of water, whereas the organic mobile phase solution (B) consisted of acetonitrile. […] MS data was acquired in full scan mode (100–1000 m/z, 70,000 mass resolution, 3×10^6 maximum ions collected per 100 ms), and tandem MS (MS/MS) data was recorded by all-ion fragmentation (AIF) mode. Negative and positive ion modes were carried out simultaneously at a 10-min method duration. […] An overview of the analyses conducted on the various PFAS is available in Table S2.
Nontargeted data analysis was accomplished with R scripts that are available on Github (https://github.com/huiUofT/PFASmetabolite). […] The peak features were matched across samples with a mass tolerance of 2.5 ppm and a RT window of 20 s, after RT adjustment. The ratio of abundances of each feature in treatment groups relative to the control group (DMSO) was calculated. The p -values of the difference between two groups were determined by student’s t -tests.
With `O=C(O)C(F)(F)C(F)(F)C(F)(F)F` [compound 12, Perfluorobutanoic acid], the “Peak intensity of PFCA in zebrafish embryos directly exposed to the PFCA” value was 3728507 and 3082077 and 5690847.

The same data set, now with this note: zebrafish larvae, Figure 5B.
Regarding `OCCCCC(F)(F)C(F)(F)C(F)(F)C(F)(F)F` [compound 40, 4:4 Fluorotelomer alcohol], the “Profile of metabolites (%): Alcohol” value was 0.00%.

Staying with this data set, now noted: zebrafish larvae, single replicates, Figure 5A.
For the compound `OCCCCC(F)(F)C(F)(F)C(F)(F)C(F)(F)F` [compound 40, 4:4 Fluorotelomer alcohol], the “Peak intensity: Alcohol (parent FTOH)” value was determined as 0.
